Measured values from PMC10674233, “Design, Synthesis, In Vitro, and In Silico Studies of New N^5-Substituted-pyrazolo[3,4-d]pyrimidinone Derivatives as Anticancer CDK2 Inhibitors” (Pharmaceuticals, 2023).

Assays:
HepG2 cells = test: MTT antiproliferative assay, HepG2 cells; format: cell-based; settings: Homo sapiens, HepG2 HCC cell line, triplicate, read-out: IC50 ± SD HepG2
HCT116 cells = test: MTT antiproliferative assay, HCT116 cells; format: cell-based; settings: Homo sapiens, HCT-116, HCT116 CRC cell line, triplicate, read-out: IC50 ± SD HCT116
[1] = test system: normal human fibroblast cell line (WI-38); test: MTT cytotoxicity assay, normal human fibroblast cell line WI-38; format: cell-based; settings: WI-38 normal human fibroblasts, read-out: IC50 ± SD WI-38
CDK2/CyclinA2 = biological target: T1, CDK2/CyclinA2 (Homo sapiens, UniProt P24941); test: In vitro enzymatic CDK2 inhibition assay (Kinase-Glo luminescence kit); format: biochemical; settings: triplicate; read-out: CDK2 Inhibition IC50 ± SD
T1 construct: purchased BPS Bioscience Inc. (San Diego, CA, USA)
Description: . […]. In vitro evaluation of CDK2 inhibition was determined using a commercially available assay kit from BPS Bioscience Inc. (San Diego, CA, USA) as described in the Supplementary Information. […]
serum. After that, the reconstituted MTT was added in an amount equal to 10% of the culture medium volume. Cultures were returned to incubator for 2-4 hours depending on cell type and maximum cell density. Incubation times should be consistent when making comparisons. After the incubation period, cultures were removed from incubator and the resulting formazan crystals were dissolved by adding an amount of MTT Solubilization Soluti on [M-8910] equal to the original culture medium volume. Occasionally, especially in dense cultures, pipetting up and down [trituration] may be required to completely dissolve the MTT formazan crystals.
Absorbance was measured spectrophotometrically at a wavelength of 570 nm. The background absorbance of multiwell plates was measured at 690 nm and subtract from the 570 nm […]
2.2. CDK2/Cyclin A2 inhibitory activity
Promega Kinase-Glo Plus luminescence kinase assay protocol was adopted as reported. […]
reaction by adding 20 μl of diluted CDK2/CyclinA2 enzyme to the wells designated “Positive Control” and "Test Inhibitor Control". […] Measure luminescence using the microplate reader. “Blank” value is subtracted from all readings. […]

SMILES	IC50 (HepG2 cells) [µM]	IC50 (HCT116 cells) [µM]	IC50 (CDK2/CyclinA2) [µM]	melting point [°C]	IC50 [1] [µM]
COC(=O)Cn1c(C)nc2c(cnn2-c2ccccc2)c1=O [Compound 2a]	32.9 ± 1.67	19.4 ± 0.86	–	–	–
CCOC(=O)Cn1c(C)nc2c(cnn2-c2ccccc2)c1=O [Compound 2b]	58 ± 2.94	10.9 ± 0.48	–	–	–
Cc1nc2c(cnn2-c2ccccc2)c(=O)n1CC(=O)c1ccc(Cl)cc1 [Compound 3a]	26.2 ± 1.33	35.9 ± 1.59	–	–	–
Cc1ccc(C(=O)Cn2c(C)nc3c(cnn3-c3ccccc3)c2=O)cc1 [Compound 3b]	1.9 ± 0.1	10.8 ± 0.48	–	–	–

Continued, in another order:

IC50 (HepG2 cells) [µM]	IC50 (HCT116 cells) [µM]	IC50 (CDK2/CyclinA2) [µM]	melting point [°C]	SMILES	IC50 [1] [µM]
0.58 ± 0.03	1.09 ± 0.05	0.21 ± 0.01	–	Cc1nc2c(cnn2-c2ccccc2)c(=O)n1CC(=O)Nc1ccc(F)cc1 [Compound 4a]	58.6
2.57 ± 0.13	3.38 ± 0.15	0.96 ± 0.05	–	Cc1nc2c(cnn2-c2ccccc2)c(=O)n1CC(=O)Nc1ccc(Cl)cc1 [Compound 4b]	48.5
87.3 ± 4.42	26.4 ± 1.17	–	220 to 225	COc1cccc(NC(=O)Cn2c(C)nc3c(cnn3-c3ccccc3)c2=O)c1 [Compound 4c]	–
16.1 ± 0.81	41.2 ± 1.83	–	–	Cc1nc2c(cnn2-c2ccccc2)c(=O)n1CC(=O)Nc1cccc2ccccc12 [Compound 4e]	–
